Test results reported in PubChem BioAssay AID330 (DTP/NCI, 2004).
Where “and” joins values, the source holds several entries; their conditions need not be identical. Equal entries are not always repeated. Inconclusive results and toxic doses are left out. How the source made its calls: active means survival T/C of 150% or more; inactive means T/C below 125% in these data.

Tested on: P388 leukemia ip, CD2F1 mice, survival T/C
Experiment: NCI In Vivo Anticancer Drug Screen. Data for tumor model P388 Leukemia (intraperitoneal) in CD2F1 (CDF1) mice
Conditions: endpoint: median survival time, higher = longer survival
How it was run: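 Mice carrying the transplanted tumor received test compound or vehicle. Survival was recorded in each group, and the value is the treated-group measurement divided by that of the vehicle-treated control group.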

[1] = dose: 50.0 mg/kg/injection, schedule: Q01DX009 (ip), vehicle: saline
[2] = dose: 50.0 mg/kg/injection, schedule: Q01DX009 (ip), vehicle: saline with Tween-80
[3] = dose: 100.0 mg/kg/injection, schedule: Q01DX009 (ip), vehicle: saline with Tween-80
[4] = dose: 100.0 mg/kg/injection, schedule: Q01DX009 (ip), vehicle: saline
[5] = dose: 100.0 mg/kg/injection, schedule: Q04DX002 (ip), vehicle: Klucel (hydroxypropylcellulose) (HPC)
[6] = dose: 200.0 mg/kg/injection, schedule: Q04DX002 (ip), vehicle: Klucel (hydroxypropylcellulose) (HPC)
[7] = dose: 400.0 mg/kg/injection, schedule: Q04DX002 (ip), vehicle: Klucel (hydroxypropylcellulose) (HPC)
[8] = dose: 50.0 mg/kg/injection, schedule: Q01DX005 (ip), vehicle: Klucel (hydroxypropylcellulose) (HPC)
[9] = dose: 100.0 mg/kg/injection, schedule: Q01DX005 (ip), vehicle: Klucel (hydroxypropylcellulose) (HPC)
[10] = dose: 60.0 mg/kg/injection, schedule: Q01DX005 (ip), vehicle: saline with Tween-80
[11] = dose: 120.0 mg/kg/injection, schedule: Q01DX005 (ip), vehicle: saline with Tween-80
[12] = dose: 240.0 mg/kg/injection, schedule: Q01DX005 (ip), vehicle: saline with Tween-80
[13] = dose: 100.0 mg/kg/injection, schedule: Q04DX003 (ip), vehicle: saline with Tween-80
[14] = dose: 200.0 mg/kg/injection, schedule: Q04DX003 (ip), vehicle: saline with Tween-80
[15] = dose: 200.0 mg/kg/injection, schedule: Q01DX009 (ip), vehicle: saline with Tween-80
[16] = dose: 12.5 mg/kg/injection, schedule: Q01DX005 (ip), vehicle: Klucel (hydroxypropylcellulose) (HPC)
[17] = dose: 50.0 mg/kg/injection, schedule: Q04DX003 (ip), vehicle: saline with Tween-80
[18] = dose: 50.0 mg/kg/injection, schedule: Q01DX009 (ip), vehicle: Klucel (hydroxypropylcellulose) (HPC)
[19] = dose: 100.0 mg/kg/injection, schedule: Q01DX009 (ip), vehicle: Klucel (hydroxypropylcellulose) (HPC)

Measured: T/C

CCCCCCCCCCCCCCCCCCOCC(COP(=O)([O-])OCC[N+](C)(C)C)OC (stereo unspecified)
inactive: dose: 3.12 mg/kg/injection, schedule: Q01DX009 (ip), vehicle: saline 103 % of control | dose: 6.25 mg/kg/injection, schedule: Q01DX009 (ip), vehicle: saline 109 % of control | dose: 12.5 mg/kg/injection, schedule: Q01DX005 (ip), vehicle: saline with Tween-80 109 % of control | dose: 12.5 mg/kg/injection, schedule: Q01DX009 (ip), vehicle: saline 107 % of control and 117 % of control | dose: 25.0 mg/kg/injection, schedule: Q01DX009 (ip), vehicle: saline 122 % of control and 124 % of control | [1] 88 % of control

COc1ccc(C#CC2(O)c3ccccc3C(O)(C#Cc3ccc(OC)cc3)c3ccccc32)cc1 (stereo unspecified)
inactive: [2] 98 % of control | [3] 98 % of control

C=C(C)C1NC(=O)C(C(O)c2cc(O)c(O)c(Cl)c2)N(C)C(=O)/C(=C/C(=O)O)NC(=O)/C(=C(\C)CC)NC(=O)C2C=CCN2C(=O)C(C(C)(O)CC)NC1=O (stereo unspecified)
inactive: dose: 0.65 mg/kg/injection, schedule: Q01DX005 (ip), vehicle: Klucel (hydroxypropylcellulose) (HPC) 88 % of control | dose: 1.25 mg/kg/injection, schedule: Q01DX005 (ip), vehicle: Klucel (hydroxypropylcellulose) (HPC) 95 % of control | dose: 2.5 mg/kg/injection, schedule: Q01DX005 (ip), vehicle: Klucel (hydroxypropylcellulose) (HPC) 91 % of control

CN(C)C1C(O)C2Oc3c(cc(O)c4c3C(=O)c3cc5c(c(O)c3C4=O)C(OCC3COC(C)(C)O3)CC(C)(O)C5)C(C)(O2)C1O (stereo unspecified)
inactive: dose: 2.0 mg/kg/injection, schedule: Q01DX009 (ip), vehicle: other 105 % of control | dose: 4.0 mg/kg/injection, schedule: Q01DX009 (ip), vehicle: other 117 % of control | dose: 8.0 mg/kg/injection, schedule: Q01DX009 (ip), vehicle: other 123 % of control | dose: 16.0 mg/kg/injection, schedule: Q01DX009 (ip), vehicle: other 123 % of control

NC(N)=NCCCC(N)C(=O)O (stereo unspecified)
inactive: [1] 119 % of control | [4] 100 % of control and 122 % of control | dose: 200.0 mg/kg/injection, schedule: Q01DX009 (ip), vehicle: saline 105 % of control and 110 % of control | dose: 400.0 mg/kg/injection, schedule: Q01DX009 (ip), vehicle: saline 100 % of control

O=C1/C(=C/c2ccccc2)CCCC12C(c1ccccc1)N2C1CCCCC1 (stereo unspecified)
inactive: [5] 93 % of control | [6] 86 % of control | [7] 92 % of control

O=C(Nc1ccc(Sc2ccc(N=Nc3c(O)c(S(=O)(=O)O)cc4cc(S(=O)(=O)O)ccc34)cc2)cc1)c1ccc(N=Nc2c(O)ccc3c(S(=O)(=O)O)cc(S(=O)(=O)O)cc23)cc1
inactive: [8] 102 % of control | [9] 97 % of control | dose: 200.0 mg/kg/injection, schedule: Q01DX005 (ip), vehicle: Klucel (hydroxypropylcellulose) (HPC) 109 % of control

N#CC12CCCC(=O)N1c1ccccc1S2 (stereo unspecified)
inactive: [10] 108 % of control | [11] 104 % of control | [12] 95 % of control

COc1cc2c(cc1O)C(CSC)Cc1cc(OC)c(OC)cc1N(C)CCC2 (stereo unspecified)
inactive: [13] 93 % of control | [14] 87 % of control | dose: 400.0 mg/kg/injection, schedule: Q04DX003 (ip), vehicle: saline with Tween-80 100 % of control

CCOC(=O)C(=CNc1ccccc1)C(=O)OCC
inactive: dose: 25.0 mg/kg/injection, schedule: Q01DX009 (ip), vehicle: saline with Tween-80 103 % of control | [2] 100 % of control | [3] 103 % of control | [15] 100 % of control

O=C1C2CC=CCC2C(=O)N1CC[P+](c1ccccc1)(c1ccccc1)c1ccccc1 (stereo unspecified)
inactive: dose: 0.78 mg/kg/injection, schedule: Q01DX009 (ip), vehicle: water 100 % of control | dose: 1.56 mg/kg/injection, schedule: Q01DX009 (ip), vehicle: water 102 % of control and 95 % of control | dose: 3.13 mg/kg/injection, schedule: Q01DX009 (ip), vehicle: water 102 % of control and 106 % of control | dose: 6.25 mg/kg/injection, schedule: Q01DX009 (ip), vehicle: water 112 % of control | dose: 12.5 mg/kg/injection, schedule: Q01DX009 (ip), vehicle: water 115 % of control and 116 % of control | dose: 25.0 mg/kg/injection, schedule: Q01DX009 (ip), vehicle: water 115 % of control

O=P(CCCCP(=O)(c1ccccc1)c1ccccc1)(c1ccccc1)c1ccccc1.[Cl][Sn]([Cl])([c]1ccccc1)[c]1ccccc1
inactive: dose: 1.56 mg/kg/injection, schedule: Q01DX005 (ip), vehicle: Klucel (hydroxypropylcellulose) (HPC) 114 % of control | dose: 3.12 mg/kg/injection, schedule: Q01DX005 (ip), vehicle: Klucel (hydroxypropylcellulose) (HPC) 114 % of control | [16] 115 % of control

c1ccc2c(c1)C1=NCCN1c1ccccc1-2
inactive: dose: 12.0 mg/kg/injection, schedule: Q01DX009 (ip), vehicle: saline with Tween-80 109 % of control | dose: 12.0 mg/kg/injection, schedule: Q01DX009 (ip), vehicle: saline 88 % of control | dose: 18.0 mg/kg/injection, schedule: Q01DX009 (ip), vehicle: saline with Tween-80 113 % of control | dose: 18.0 mg/kg/injection, schedule: Q01DX009 (ip), vehicle: saline 105 % of control | dose: 27.0 mg/kg/injection, schedule: Q01DX009 (ip), vehicle: saline with Tween-80 118 % of control | dose: 27.0 mg/kg/injection, schedule: Q01DX009 (ip), vehicle: saline 111 % of control | dose: 40.0 mg/kg/injection, schedule: Q01DX009 (ip), vehicle: saline with Tween-80 122 % of control

CC(=O)OC1CC2CCC1(C)C2(C)C (stereo unspecified)
inactive: [2] 109 % of control | [17] 105 % of control | [3] 104 % of control | [13] 100 % of control | [14] 100 % of control

COc1ccccc1C1c2cc3c(cc2OC(C)(OC)C1C)OCO3 (stereo unspecified)
inactive: [10] 93 % of control | [11] 90 % of control | [12] 92 % of control

CCC(c1ccc(O)cc1)C(CC)c1ccc(OCC(N)=O)cc1 (stereo unspecified)
inactive: [10] 92 % of control | [11] 94 % of control | [12] 94 % of control

Cc1ccc(N=Cc2cccs2)cc1Cl
inactive: [18] 94 % of control | [19] 113 % of control | dose: 200.0 mg/kg/injection, schedule: Q01DX009 (ip), vehicle: Klucel (hydroxypropylcellulose) (HPC) 106 % of control

Nc1ccccc1Sc1cc(Cl)nnc1Cl
inactive: [2] 93 % of control | [3] 95 % of control | [15] 99 % of control

c1ccc(Sc2ncccn2)nc1
inactive: [1] 108 % of control | [4] 115 % of control

Cn1ncc2c(NCc3ccccc3)ncnc21
inactive: dose: 6.25 mg/kg/injection, schedule: Q01DX009 (ip), vehicle: saline sonified 95 % of control | dose: 12.5 mg/kg/injection, schedule: Q01DX009 (ip), vehicle: saline sonified 95 % of control | dose: 25.0 mg/kg/injection, schedule: Q01DX009 (ip), vehicle: saline sonified 109 % of control | [17] 109 % of control | [13] 104 % of control | [14] 95 % of control

Cc1ccc(NC(=S)N/N=C\c2nc3ccccc3c3ccccc23)cc1
inactive: [5] 98 % of control | [6] 92 % of control | [7] 93 % of control

Cn1c(=O)c2c(ncn2CCNC(c2ccccc2)c2ccccc2)n(C)c1=O
inactive: dose: 50.0 mg/kg/injection, schedule: Q01DX005 (ip), vehicle: water 107 % of control | dose: 100.0 mg/kg/injection, schedule: Q01DX005 (ip), vehicle: water 107 % of control | dose: 200.0 mg/kg/injection, schedule: Q01DX005 (ip), vehicle: water 107 % of control

CCCCCC1=CC2(F)C(=O)NC(=O)NC12 (stereo unspecified)
inactive: [16] 97 % of control | dose: 25.0 mg/kg/injection, schedule: Q01DX005 (ip), vehicle: Klucel (hydroxypropylcellulose) (HPC) 98 % of control | [8] 108 % of control | [9] 95 % of control

CC(=O)N(C(C)=O)N1C(=O)C2C3C=CC(C4CC34)C2C1=O (stereo unspecified)
inactive: [18] 92 % of control | [19] 94 % of control

CC(=O)c1ccc(N=NN(C)c2ccc(C(C)=O)cc2)cc1
inactive: [2] 108 % of control | [3] 107 % of control | [15] 101 % of control
